Source: patent US20250188030A1, “Biphenyl and Phenylpyridine Compounds” (Pfizer Inc., priority 2023, published 2025)
Like-named read-outs stand apart in the source and are kept apart here.

How the values were obtained:
[1] = target: KAT2A (Homo sapiens (Human), UniProt Q92830); test: KAT2A acetyltransferase biochemical assay (RapidFire mass spectrometry, AcCoA to CoA)
[2] = tested on: MM.1S cells; test: MM1.S 10 Day Proliferation Assay (CellTiter-Glo); format: cell-based, Human; details: Homo sapiens, MM1.S, 240 h
Summary of the method: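 MM.1S cells, 500/well in ultra-low-attachment plates, were pre-incubated 16 h, then exposed to a 10-point 1:3 dilution series (top 10 μM final, 0.1% DMSO) for 10 days at 37 °C, with compound-containing medium refreshed at day 5. Viability was read by CellTiter-Glo luminescence; IC50 came from four-parameter fit.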

[3] = tested on: H3K9AC (HT1080 cells); test: H3K9AC Sandwich ELISA Assay in HT1080 cells (KAT2A primary cell-based screening assay); set-up: species or system Human; details: Homo sapiens, HT-1080, H3K9AC sandwich ELISA
Summary of the method: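 Acetylated H3K9 quantified by luminescent sandwich ELISA (total H3 capture, H3K9ac detection) on HCl lysates of HT1080 cells. Cells had 24 h compound exposure at 37 °C, top concentration 10 µM, 10-point 3-fold series, 0.1% DMSO; IC50 from four-parameter fitting.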

[4] = KAT2A Ki at 1 μM AcCoA, 5 μM H3 1-21 peptide, 0.5 nM KAT2A, 90-minute reaction
[5] = read-out: KAT2A Ki at 1 μM AcCoA, 5 μM H3 1-21 peptide, 0.5 nM KAT2A, 90-minute reaction

Sequence of KAT2A (Q92830 whole entry): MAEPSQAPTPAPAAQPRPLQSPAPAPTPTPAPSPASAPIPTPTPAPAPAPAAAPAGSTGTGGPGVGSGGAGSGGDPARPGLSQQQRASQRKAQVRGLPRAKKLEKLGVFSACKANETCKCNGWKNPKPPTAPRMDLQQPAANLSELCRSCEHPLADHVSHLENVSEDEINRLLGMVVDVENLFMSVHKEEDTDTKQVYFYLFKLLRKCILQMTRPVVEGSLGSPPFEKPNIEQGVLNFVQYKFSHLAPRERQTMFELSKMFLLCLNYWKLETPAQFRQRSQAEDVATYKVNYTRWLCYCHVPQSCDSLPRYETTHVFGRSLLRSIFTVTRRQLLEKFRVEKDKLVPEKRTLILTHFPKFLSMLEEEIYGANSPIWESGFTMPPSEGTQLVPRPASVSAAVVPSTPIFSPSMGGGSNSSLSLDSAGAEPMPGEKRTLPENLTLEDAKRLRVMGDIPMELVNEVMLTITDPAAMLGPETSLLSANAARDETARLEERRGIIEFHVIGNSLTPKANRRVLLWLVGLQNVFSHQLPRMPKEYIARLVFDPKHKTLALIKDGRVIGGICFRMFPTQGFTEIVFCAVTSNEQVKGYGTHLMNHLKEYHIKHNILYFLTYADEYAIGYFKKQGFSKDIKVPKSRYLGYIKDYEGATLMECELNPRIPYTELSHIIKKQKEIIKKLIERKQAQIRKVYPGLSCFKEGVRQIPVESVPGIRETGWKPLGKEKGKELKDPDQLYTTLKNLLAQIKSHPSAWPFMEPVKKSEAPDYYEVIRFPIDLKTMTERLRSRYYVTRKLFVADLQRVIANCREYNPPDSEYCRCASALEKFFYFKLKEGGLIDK

| Ki [1, 4] [nM] | IC50 [2] [nM] | IC50 [3] [nM] | Ki [1, 5] [nM] | Compound |
| --- | --- | --- | --- | --- |
| 0.66 | 61.4 | 10.8 | – | CN1CC(C)(C)C[C@H]1C(=O)N[C@@H]1CC[C@@H](Oc2ccc(CC(=O)NS(C)(=O)=O)cc2-c2cccc(F)c2C2CCC2)C1 [Example E2, N-{(1R,3R)-3-[(2′-cyclobutyl-3′-fluoro-5-{2-[(methanesulfonyl)amino]-2-oxoethyl}[1,1′-biphenyl]-2-yl)oxy]cyclopentyl}-1,4,4-trimethyl-L-prolinamide] |
| – | 11.9 | 4.83 | 0.31 | [2H]C([2H])([2H])N1CC(C)(C)C[C@H]1C(=O)N[C@@H]1CC[C@@H](Oc2ccc(C(C)(C)C(=O)NS(C)(=O)=O)cc2-c2cccc(F)c2C2CCC2)C1 [Example E5] |
| – | 203 | 99 | 53 | CN1CC(C)(C)C[C@H]1C(=O)N[C@@H]1CC[C@@H](Oc2ccc(C(C)(C)C(=O)NS(C)(=O)=O)cc2-c2ccccc2CC(F)(F)F)C1 [Example E6, N-[(1R,3R)-3-{[5-{1-[(methanesulfonyl)amino]-2-methyl-1-oxopropan-2-yl}-2′-(2,2,2-trifluoroethyl)[1,1′-biphenyl]-2-yl]oxy}cyclopentyl]-1,4,4-trimethyl-L-prolinamide] |
| – | 202 | 34.2 | 26.6 | CN1CC(C)(C)C[C@H]1C(=O)N[C@@H]1CC[C@@H](Oc2ccc(C(C)(C)C(=O)NS(C)(=O)=O)cc2-c2cccc(F)c2C2CC2)C1 [Example E7, N-{(1R,3R)-3-[(2′-cyclopropyl-3′-fluoro-5-{1-[(methanesulfonyl)amino]-2-methyl-1-oxopropan-2-yl}[1,1′-biphenyl]-2-yl)oxy]cyclopentyl}-1,4,4-trimethyl-L-prolinamide] |
| – | 126 | 21.3 | 26.4 | CCc1c(F)cccc1-c1cc(C(C)(C)C(=O)NS(C)(=O)=O)ccc1O[C@@H]1CC[C@@H](NC(=O)[C@@H]2CC(C)(C)CN2C)C1 [Example E10, N-{(1R,3R)-3-[(2′-ethyl-3′-fluoro-5-{1-[(methanesulfonyl)amino]-2-methyl-1-oxopropan-2-yl}[1,1′-biphenyl]-2-yl)oxy]cyclopentyl}-1,4,4-trimethyl-L-prolinamide] |
| – | 73.4 | 24.2 | 1.7 | CN1CC(C)(C)C[C@H]1C(=O)N[C@@H]1CC[C@@H](Oc2ccc(C(C)(C)C(=O)NS(C)(=O)=O)cc2-c2ccc(F)c(F)c2C2CCC2)C1 [Example E11, N-{(1R,3R)-3-[(2′-cyclobutyl-3′,4′-difluoro-5-{1-[(methanesulfonyl)amino]-2-methyl-1-oxopropan-2-yl}[1,1′-biphenyl]-2-yl)oxy]cyclopentyl}-1,4,4-trimethyl-L-prolinamide] |
| – | 125 | 41.5 | 12.9 | CN1CC(C)(C)C[C@H]1C(=O)N[C@H]1C[C@H](COc2ccc(CC(=O)O)cc2-c2cccc(F)c2C2CCC2)C1 [Example F1, [2′-cyclobutyl-3′-fluoro-6-({(1S,3r)-3-[(1,4,4-trimethyl-L-prolyl)amino]cyclobutyl}methoxy)[1,1′-biphenyl]-3-yl]acetic acid] |
| 9.11 | 625 | 71.2 | – | CN1CC(C)(C)C[C@H]1C(=O)N[C@H]1C[C@H](COc2ccc(C(C)(C)C(=O)O)cc2-c2cccc(F)c2C2CCC2)C1 [Example F2, 2-[2′-cyclobutyl-3′-fluoro-6-({(1S,3r)-3-[(1,4,4-trimethyl-L-prolyl)amino]cyclobutyl}methoxy)[1,1′-biphenyl]-3-yl]-2-methylpropanoic acid] |
| 1.68 | 56.9 | 9.38 | – | CN1CC(C)(C)C[C@H]1C(=O)N[C@H]1C[C@H](COc2ccc(C(C)(C)C(=O)NS(C)(=O)=O)cc2-c2cccc(F)c2C2CCC2)C1 [Example G2, N-[(1r,3S)-3-{[(2′-cyclobutyl-3′-fluoro-5-{1-[(methanesulfonyl)amino]-2-methyl-1-oxopropan-2-yl}[1,1′-biphenyl]-2-yl)oxy]methyl}cyclobutyl]-1,4,4-trimethyl-L-prolinamide] |
| – | 56 | 7.01 | 0.16 | Cc1cc(NS(C)(=O)=O)n(-c2ccc(O[C@@H]3CC[C@@H](NC(=O)[C@@H]4CC(C)(C)CN4C)C3)c(-c3cccc(F)c3C3CCC3)c2)n1 [Example L1, N-[(1R,3R)-3-({2′-cyclobutyl-3′-fluoro-5-[5-(methanesulfonamido)-3-methyl-1H-pyrazol-1-yl][1,1′-biphenyl]-2-yl}oxy)cyclopentyl]-1,4,4-trimethyl-L-prolinamide] |

More lines, now with the values behind:

| Compound | Ki [1, 4] [nM] | IC50 [2] [nM] | IC50 [3] [nM] | Ki [1, 5] [nM] |
| --- | --- | --- | --- | --- |
| CN(C)S(=O)(=O)NC(=O)C(C)(C)c1ccc(O[C@@H]2CC[C@@H](NC(=O)[C@@]3(F)CNC4(CCC4)C3)C2)c(-c2cccc(F)c2C2CCC2)c1 [Example C2, (7S)-N-{(1R,3R)-3-[(2′-cyclobutyl-5-{1-[(dimethylsulfamoyl)amino]-2-methyl-1-oxopropan-2-yl}-3′-fluorobiphenyl-2-yl)oxy]cyclopentyl}-7-fluoro-5-azaspiro[3.4]octane-7-carboxamide] | 0.05 | 5.37 | 3.56 | – |
| CCc1ccccc1-c1cc(C(C)(C)C(=O)NS(=O)(=O)C(C)C)ccc1O[C@@H]1CC[C@@H](NC(=O)[C@@]2(F)CNC3(CCC3)C2)C1 [Example C46, (7S)-N-[(1R,3R)-3-({2′-ethyl-5-[2-methyl-1-oxo-1-(propane-2-sulfonamido)propan-2-yl][1,1′-biphenyl]-2-yl}oxy)cyclopentyl]-7-fluoro-5-azaspiro[3.4]octane-7-carboxamide] | – | 62.9 | 7.4 | 2.16 |
| CC(C)c1ccccc1-c1cc(C(C)(C)C(=O)NS(=O)(=O)C(C)C)ccc1O[C@@H]1CC[C@@H](NC(=O)[C@@]2(F)CNC3(CCC3)C2)C1 [Example C47, (7S)-7-fluoro-N-[(1R,3R)-3-({5-[2-methyl-1-oxo-1-(propane-2-sulfonamido)propan-2-yl]-2′-(propan-2-yl)[1,1′-biphenyl]-2-yl}oxy)cyclopentyl]-5-azaspiro[3.4]octane-7-carboxamide] | – | 14.3 | 2.9 | 0.33 |
| CCc1ccccc1-c1cc(CC(=O)NS(=O)(=O)C2(C)CC2)ccc1O[C@@H]1CC[C@@H](NC(=O)[C@@]2(F)CNC3(CCC3)C2)C1 [Example C51, (7S)-N-[(1R,3R)-3-({2′-ethyl-5-[2-(1-methylcyclopropane-1-sulfonamido)-2-oxoethyl][1,1′-biphenyl]-2-yl}oxy)cyclopentyl]-7-fluoro-5-azaspiro[3.4]octane-7-carboxamide] | – | 4 | 3 | 0.4 |
| CC(C)c1ccccc1-c1cc(CC(=O)NS(=O)(=O)C2(C)CC2)ccc1O[C@@H]1CC[C@@H](NC(=O)[C@@]2(F)CNC3(CCC3)C2)C1 [Example C54, (7S)-7-fluoro-N-[(1R,3R)-3-({5-[2-(1-methylcyclopropane-1-sulfonamido)-2-oxoethyl]-2′-(propan-2-yl)[1,1′-biphenyl]-2-yl}oxy)cyclopentyl]-5-azaspiro[3.4]octane-7-carboxamide] | – | 1.4 | 0.9 | 0.04 |
| CC(C)c1ccccc1-c1cc(CC(=O)NS(=O)(=O)C(C)C)ccc1O[C@@H]1CC[C@@H](NC(=O)[C@@]2(F)CNC3(CCC3)C2)C1 [Example C55, (7S)-7-fluoro-N-[(1R,3R)-3-({5-[2-oxo-2-(propane-2-sulfonamido)ethyl]-2′-(propan-2-yl)[1,1′-biphenyl]-2-yl}oxy)cyclopentyl]-5-azaspiro[3.4]octane-7-carboxamide] | – | 2.5 | 0.8 | 0.11 |
| CCc1c(F)cccc1-c1cc(CC(=O)NS(=O)(=O)C(C)C)ccc1O[C@@H]1CC[C@@H](NC(=O)[C@@]2(F)CNC3(CCC3)C2)C1 [Example C58, (7S)-N-[(1R,3R)-3-({2′-ethyl-3′-fluoro-5-[2-oxo-2-(propane-2-sulfonamido)ethyl][1,1′-biphenyl]-2-yl}oxy)cyclopentyl]-7-fluoro-5-azaspiro[3.4]octane-7-carboxamide] | – | 8.1 | 3.4 | 0.11 |
| CC(C)S(=O)(=O)NC(=O)C(C)(C)c1cnc(O[C@@H]2CC[C@@H](NC(=O)[C@@]3(F)CNC4(CCC4)C3)C2)c(-c2cccc(F)c2C2CCC2)c1 [Example C65, (7S)-N-[(1R,3R)-3-({3-(2-cyclobutyl-3-fluorophenyl)-5-[2-methyl-1-oxo-1-(propane-2-sulfonamido)propan-2-yl]pyridin-2-yl}oxy)cyclopentyl]-7-fluoro-5-azaspiro[3.4]octane-7-carboxamide] | – | 31.8 | 3.8 | 0.16 |
| CN1CC(C)(C)C[C@H]1C(=O)N[C@@H]1CC[C@@H](Oc2ccc(C(C)(C)C(=O)O)cc2-c2cccc(F)c2C2CCC2)C1 [Example D1, 2-[2′-cyclobutyl-3′-fluoro-6-({(1R,3R)-3-[(1,4,4-trimethyl-L-prolyl)amino]cyclopentyl}oxy)[1,1′-biphenyl]-3-yl]-2-methylpropanoic acid] | – | 419 | 52.8 | 4.05 |
| CC(C)c1ccccc1-c1cc(CC(=O)O)ccc1O[C@@H]1CC[C@@H](NC(=O)[C@@H]2CC(C)(C)CN2C)C1 [Example D11, [2′-(propan-2-yl)-6-({(1R,3R)-3-[(1,4,4-trimethyl-L-prolyl)amino]cyclopentyl}oxy)[1,1′-biphenyl]-3-yl]acetic acid] | – | 497 | 98.5 | 91.9 |
